Where a name gives a salt, the structure may show the parent alone.
What follows are compounds tested against 5-HT1 receptor (assay: Interaction with serotonin receptors: 5-HT1 receptor, calf hippocampus, ligand 3H-serotonin). Settings: ligand 3H-serotonin (Table 2), read-out: K1.
Format: binding
Description: (§1) Interaction with serotonin receptors
(§2) Inhibition constant K1 (nmol l^-1)
Ligand: ^3 H--serotonin
In generally similar manner there were prepared additional compounds which, when tested against 5-HT, receptors as in Example 7, gave the results shown in Table 2.

| Structure (SMILES) | Ki |
| --- | --- |
| C[C@@H]1CCC[C@H](C)N1CCc1cn(C(N)=O)c2ccccc12 [compound 13] | 1.8 µM |
| C[C@@H]1CCC[C@H](C)N1CCc1c[nH]c2ccc(C#N)cc12 [compound 28] | 0.24 µM |
| C[C@@H]1CCC[C@H](C)N1CCc1c[nH]c2ccc(Cl)cc12 [compound 23] | 0.06 µM |
| Cc1ccc2[nH]cc(CCN3[C@H](C)CCC[C@@H]3C)c2c1 [compound 27] | 0.04 µM |
| COc1ccc2[nH]cc(CCN3[C@@H](C)CCC[C@@H]3C)c2c1 (relative stereo) [compound 20] | 0.45 µM |
| COc1ccc2[nH]cc(CCN3[C@H](C)CCC[C@@H]3C)c2c1 [compound 21] | 0.07 µM |
| C[C@H]1CCC[C@H](C)N1CCc1c[nH]c2ccc(OCc3ccccc3)cc12 (relative stereo) [compound 15] | 0.5 µM |
| CC1CC(C)N(CCc2c[nH]c3ccccc23)C(C)C1 (centres unmarked) [compound 26] | 0.92 µM |
| C[C@@H]1CCC[C@H](C)N1CCc1c[nH]c2ccc(O)cc12 [compound 12] | 0.015 µM |
| C[C@@H]1CCC[C@H](C)N1CCc1c[nH]c2ccc(OCc3ccccc3)cc12 [compound 11] | 0.2 µM |
| C[C@H]1CCC[C@H](C)N1CCc1c[nH]c2ccccc12 (relative stereo) [compound 29] | 3 µM |
| COc1ccc2[nH]cc(CCN3[C@@H](C)CCC[C@@H]3C)c2c1 (relative stereo) [compound 22] | 0.045 µM |
| Cc1ccc(S(=O)(=O)n2cc(CCN3[C@H](C)CCC[C@@H]3C)c3cc(Br)ccc32)cc1 [compound 31] | 3.2 µM |
| CC1CCCCN1CCc1c[nH]c2ccccc12 (centres unmarked) [compound 25] | 0.17 µM |
| C[C@@H]1CCC[C@H](C)N1CCc1c[nH]c2ccc(F)cc12 [compound 24] | 0.17 µM |
| C[C@@H]1CCC[C@H](C)N1CCc1c[nH]c2ccc(O)cc12 [compound 16] | 0.004 µM |
| COc1ccc2[nH]cc(CCN3[C@H](C)CCC[C@@H]3C)c2c1 [compound 10] | 0.01 µM |
| C[C@@H]1CCC[C@H](C)N1CCc1c[nH]c2ccc(-n3cc(CCN4[C@H](C)CCC[C@@H]4C)c4cc(Br)ccc43)cc12 [compound 32] | 0.68 µM |
| C[C@@H]1CCC[C@H](C)N1CCc1c[nH]c2ccccc12 [compound 19] | 0.8 µM |
| CC1(C)CCCC(C)(C)N1CCc1c[nH]c2ccccc12 [compound 39] | > 10 µM |
| C[C@@H]1CCC[C@H](C)N1CCc1cn(C(=O)OC(C)(C)C)c2ccccc12 [compound 30] | 1.8 µM |
| C[C@H]1CCC[C@H](C)N1CCc1c[nH]c2ccc(O)cc12 (relative stereo) [compound 17] | 0.025 µM |
| COc1ccc2[nH]cc(CCN3[C@H](C)CCC[C@@H]3C)c2c1 [compound 9] | 0.013 µM |
| C[C@@H]1CCC[C@H](C)N1CCc1c[nH]c2ccc(CN)cc12 [compound 35] | 0.5 µM |
| C[C@@H]1CCC[C@H](C)N1CCc1c[nH]c2ccc(OCc3ccccc3)cc12 [compound 14] | 0.8 µM |
| CC1CC(C)N(CCc2c[nH]c3ccc(Cl)cc23)C(C)C1 (centres unmarked) [compound 38] | 0.66 µM |
| C[C@@H]1CCC[C@H](C)N1CCc1cn(C)c2ccc(Br)cc12 [compound 34] | 1.1 µM |
| C[C@@H]1CCC[C@H](C)N1CCc1c[nH]c2ccc(Br)cc12 [compound 18] | 0.03 µM |
| C[C@@H]1CCC[C@H](C)N1CCc1c[nH]c2ccc(C(N)=O)cc12 [compound 37] | 0.007 µM |
| C[C@@H]1CCC[C@H](C)N1CCc1cn(C(=O)c2ccccc2)c2ccc(Br)cc12 [compound 36] | 1 µM |

What follows are compounds tested against T1, 5-HT2 receptor (Rattus norvegicus, UniProt P14842) (assay: Interaction with serotonin receptors: 5-HT2 receptor, rat prefrontal cortex, ligand 3H-ketanserin). Settings: not given.
T1 construct: rat prefrontal cortex; from tissue; host or cells: rat prefrontal cortex
Format: binding
Description: as §1, §2
5-HT2 receptor Contraction of the
Ligand: ^3 H--ketanserin

T1 sequence (P14842 whole entry): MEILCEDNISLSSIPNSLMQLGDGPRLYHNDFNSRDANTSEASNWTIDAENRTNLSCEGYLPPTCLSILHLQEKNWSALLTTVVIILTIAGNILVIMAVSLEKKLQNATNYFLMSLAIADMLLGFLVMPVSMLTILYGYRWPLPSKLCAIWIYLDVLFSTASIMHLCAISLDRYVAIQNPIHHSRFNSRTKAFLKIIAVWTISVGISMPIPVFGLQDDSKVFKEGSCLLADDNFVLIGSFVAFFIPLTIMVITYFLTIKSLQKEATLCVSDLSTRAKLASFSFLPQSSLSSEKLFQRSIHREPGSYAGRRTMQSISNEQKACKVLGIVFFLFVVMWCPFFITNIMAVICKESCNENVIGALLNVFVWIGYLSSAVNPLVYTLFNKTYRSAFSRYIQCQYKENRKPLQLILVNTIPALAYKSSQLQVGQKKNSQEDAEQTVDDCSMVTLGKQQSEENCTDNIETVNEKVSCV

| Structure (SMILES) | Ki |
| --- | --- |
| C[C@@H]1CCC[C@H](C)N1CCc1c[nH]c2ccc(Br)cc12 [Example 3, 3-[2-(Cis-2,6-dimethylpiperidinyl)ethyl]-5-bromoindole hydrochloride] | 1.3 µM |
| C[C@@H]1CCC[C@H](C)N1CCc1c[nH]c2ccccc12 [Example 2, 3-[2-(Cis-2,6-dimethylpiperidinyl)ethyl]indole hydrochloride] | 2.5 µM |

— patent US4870085A, “Tryptamine derivatives active on central nervous system” (Bayer Aktiengesellschaft, priority 1984, dated 1989)
